Laboratory results published in patent US20100062012A1, “Negative Genetic Regulation of Cancer Cell Renewal in Synergy with Notch- or Numb-Specific Immunotherapy” (priority 2007, published 2010).
Marks after values point to notes of the source that are not given here.

Legend:
MCF7 cells = test: Stimulation of MCF7 / GEMRes MCF7 by DLL4; assay type: cell-based, human
Description: Stimulation of GEMRes MCF7 by DLL4. GEMRes MCF7 were obtained after culture with 0.3 uM GEM for 7 weeks. MCF7 were stimulated for 24 hrs, in medium containing estradiol, fibroblast growth factor in the presence or absence of DLL4, as described (40).

[1] = biological target: Notch receptor on MCF7 cells (human); test: cell-based or functional assay
[2] = tested on: CD8+ T cells (TAL) from ascites of HLA-A2+ ovarian cancer patients; test: peptide-HLA-A2-IgG dimer staining of ovarian tumor associated lymphocytes (flow cytometry); assay type: cell-based, human; conditions: for patients with activated CD8+ Perforin+ cells expressing TCR specific for the peptide: five ovarian cancer patients
Excerpt: Lymphocyte culture. Lymphocytes were isolated by Ficoll-gradient centrifugation from heparinized ascites from HLA-A2^+ ovarian cancer patients. After separation, we cultured lymphocytes with RPMI 1640 medium with 10% FCS and 300 IU of IL-2 (Biosource Camarillo, Calif.) for one week, as we described (23,24).
We identified cells expressing high concentrations/numbers of T cell receptors (TCRs) reactive with each peptide to evaluate the role of TCR density in CTL differentiation upon in vivo stimulation with the same ligands. The TCR^+ population which usually includes cells staining with antigen-tetramers/dimers with a mean fluorescence intensity (MFI) higher than 101, was divided in three populations, one staining with antigen-pulsed HLA-A2/IgG dimers (dimers) with a MFI (TCR) between 101 and 102, and other which stained with antigen-pulsed dimers with a MFI (TCR) between 102 and 103, and other which stained with antigen-pulsed dimers with a MFI (TCR) between 103 and 104. These populations were designated as TCR^lo, TCRmed, and […], respectively, as we described (26).
T cell: peptide-HLA-A2-lgG dimer interaction. Expression of TCRs specific for peptides Notch1 (1940-1948), Notch1 (2112-2120), Numb1 (87-95), Gli1 (580-588) and AESI (128-137) was determined using HLA-A2-IgG-dimmers (BD Bioscience Pharmingen). The peptide loaded dimers were prepared as we previously described (23). Staining of lymphocyte with dimers was performed as described previously (24,27,28).
The same cells were also stained for the expression of CD8 antigen and the presence of Perforin, (effector pore forming enzyme) using specific antibodies conjugated to distinct fluorochromes than the dimers: fluorescein isothiocianate (FITC), allophycocyanin (APC) and PE. Cells reacting with the corresponding peptide-loaded dimers are designated as Notch1-1940-TCR^+, Notch1-2112-TCR^+, Numb1-87-TCR^+, and […] cells, respectively. Cells reacted with control HLA-A2-IgG dimers not loaded with peptide are designated as dNP-TCR^+ cells.

MCF7 [3] = test: MTT inhibition of proliferation; assay type: cell-based; conditions: Homo sapiens, 72 h
Excerpt: (§1) Inhibition of proliferation of tumor cell lines by anticancer drugs.

MIA-PaCa-2 [4] = test: MTT inhibition of proliferation; assay type: cell-based; conditions: Homo sapiens; MIA-PaCa-2, MTT, 72 h
Excerpt: as §1

PANC-1 = test: MTT inhibition of proliferation; assay type: cell-based; conditions: Homo sapiens; PANC-1, MTT, 72 h
Excerpt: as §1

AsPC-1 = test: MTT inhibition of proliferation; assay type: cell-based, human; conditions: Homo sapiens, ASPC1, 72 h, AsPC-1, MTT, 72 h
Excerpt: as §1

SKOV-3 = test: MTT inhibition of proliferation; assay type: cell-based, human; conditions: Homo sapiens, SK-OV-3, 72 h, SKOV-3, MTT
Excerpt: as §1

MCF7 [5] = test: Flow cytometry of CSt-C markers after culture with drugs; assay type: cell-based, human
Description: (§2) Flow cytometery analysis. All cells were cultured with Gem at 2×IC50 of gemcitabine for 10 days. Cultured cells (2×10^5) were washed in cold-PBS followed by blocking with 20 μL of 1 mg/mL of human IgG (Sigma, Saint Louis, Mo.) for 1 hour on ice. This step was necessary to inhibit non-specific binding of immunoglobulins during staining. Cells were then triple-stained with antibodies against ESA, CD44, and CD24. Analysis was performed with Becton Dickinson FACSCalibur and Cell Quest software (Becton Dickinson). Cells were gated on ESA+ population. Expression of CD24 and CD44 was examined in gated ESA+ cells as we described (26). The population of the ESA+, CD44hi and CD24low/− cells was calculated as percent of total cells and total ESA+ cells. All cell lines were also stained with a MIC-A/B and CD133, and analyzed as above.

MIA-PaCa-2 [6] = test: as above; assay type: cell-based, human
Description: as §2

MIA-PaCa-2 [7] = test: Flow cytometry of NKG2D ligands MIC-A/B in drug-resistant cells; assay type: cell-based, human; conditions: MIA PaCa-2, FIG. 7A
Description: as §2
To address the hypothesis that drug-resistant cancer cells are more sensitive to cellular immune effectors, we quantified expression of NKG2D ligands, MIC-A and -B (58, 59). ESA^+ MIA-PaCa-2 cells were analyzed for MIC-A/B. MCF7 cells were analyzed with CD44, CD24 and MIC-A/B (FIG. 7B), because almost all MCF7 cells (95% and more) expressed ESA.

MIA-PaCa-2 [8] = test: Flow cytometry of CSt-C markers after culture with drugs; assay type: cell-based, human; conditions: starting from 3.0×10^6 Mia-PaCa-2 cells
[9] = Patient 1, TCR-density High, TAL one week in 300 IU IL-2
[10] = MIA-PaCa-2 after culture with drug

Sequence of recombinant human Delta-like protein 4 (Q9NR61 27-524 limits assumed, stated change not applied): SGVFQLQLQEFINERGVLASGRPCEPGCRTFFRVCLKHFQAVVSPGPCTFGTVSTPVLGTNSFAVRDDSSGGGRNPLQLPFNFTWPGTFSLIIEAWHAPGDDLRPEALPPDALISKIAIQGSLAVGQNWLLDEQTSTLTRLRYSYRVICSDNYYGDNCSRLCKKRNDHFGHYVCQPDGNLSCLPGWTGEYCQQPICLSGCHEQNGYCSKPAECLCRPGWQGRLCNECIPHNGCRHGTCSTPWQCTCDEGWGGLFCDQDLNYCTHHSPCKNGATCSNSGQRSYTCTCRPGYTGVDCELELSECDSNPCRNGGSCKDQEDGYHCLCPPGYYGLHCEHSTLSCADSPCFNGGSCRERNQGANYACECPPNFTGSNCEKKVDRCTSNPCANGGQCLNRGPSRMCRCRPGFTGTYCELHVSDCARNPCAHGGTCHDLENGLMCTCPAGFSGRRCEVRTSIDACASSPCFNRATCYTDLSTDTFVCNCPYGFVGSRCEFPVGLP

| Molecule | % TCR+ cells for HLA-A2: peptide [2, 9] | % TCR+ cells for HLA-A2: peptide ([2]; Patient 1, TCR-density Low) [%] | % TCR+ cells for HLA-A2: peptide ([2]; Patient 1, TCR-density Med) | % TCR+ cells for HLA-A2: peptide ([2]; Patient 2, TCR-density High) [%] | % TCR+ cells for HLA-A2: peptide ([2]; Patient 2, TCR-density Low) | % TCR+ cells for HLA-A2: peptide ([2]; Patient 2, TCR-density Med) [%] | % TCR+ cells for HLA-A2: peptide ([2]; Patient 3, TCR-density High) [%] | % TCR+ cells for HLA-A2: peptide ([2]; Patient 3, TCR-density Low) [%] | % TCR+ cells for HLA-A2: peptide ([2]; Patient 3, TCR-density Med) [%] | % TCR+ cells for HLA-A2: peptide ([2]; Patient 4, TCR-density High) [%] | % TCR+ cells for HLA-A2: peptide ([2]; Patient 4, TCR-density Low) [%] | % TCR+ cells for HLA-A2: peptide ([2]; Patient 4, TCR-density Med) | % TCR+ cells for HLA-A2: peptide ([2]; Patient 5, TCR-density High) | % TCR+ cells for HLA-A2: peptide ([2]; Patient 5, TCR-density Low) [%] | % TCR+ cells for HLA-A2: peptide ([2]; Patient 5, TCR-density Med) [%] | also measured |
| --- | --- | --- | --- | --- | --- | --- | --- | --- | --- | --- | --- | --- | --- | --- | --- | --- |
| DLL4: recombinant human Delta-like protein 4, soluble Notch ligand |  |  |  |  |  |  |  |  |  |  |  |  |  |  |  | expansion of CD44+ CD24low cells compared with medium (MCF7 cells; DLL4-activation of GEMRes cells): 2-3 fold; CD44hi CD24hi (% of cells) (MCF7 cells; MCF7): 36.4%; CD44hi CD24hi (cell number) (MCF7 cells; MCF7): 6.84; CD44hi CD24low (% of cells) (MCF7 cells; MCF7): (3.5%); CD44hi CD24low (cell number) (MCF7 cells; MCF7): 0.66 × 10^6; ratio CD44hi CD24hi to CD44hi CD24low (MCF7 cells; MCF7): 10.4; Stimulation Index (MCF7 cells; MCF7, harvested/seeded): 6.27; Harvested cells (MCF7 cells; MCF7, seeded 3.0 x 10^6): *18.80 10^6 |
| recombinant human Delta-like protein 4 (from UniProt Q9NR61 27-524) (ligand) |  |  |  |  |  |  |  |  |  |  |  |  |  |  |  | Harvested cells: 10^6 (MCF7, DLL4, no GEM; NT control 12.96) [1]: 1.88e+07 cells; Harvested cells: 10^6 (MCF7, DLL4 with GEM; GEM alone 1.32) [1]: 2.16e+06 cells; Stimulation Index (proliferation of MCF7 cells, DLL4, no GEM; NT control 4.32) [1]: 6.27; Stimulation Index (proliferation of MCF7 cells, DLL4 with GEM; GEM alone 0.44) [1]: 0.72; increase in total cell number at stimulation with DLL4 [1]: > 45% |
| VLWVSADGL (listed as Homo sapiens) [Numb1-87] | 0.64* % | 0.51 | 0.66* % | 0.16 | 2.76* % | 0.46 | 0.09 | 0.50 | 0.21 | 0.22 | 0.53 | 0.26% | 0.27* % | 1.84 | 0.27 | TCRhi CD8+ cells relative to cells reactive with control dNP dimers ([2]; Patient 5): 2.45 times; increase in numbers of TCRhi Perhi cells compared with Notch1-2112 dimer ([2]; TAL-1, FIG. 4): 3.3 fold; amount of Perforin in peptide-TCR+ cells ([2]; TAL-1, FIG. 4G): highest amount of Perforin; increase in numbers of TCR+ cells ([2]; TAL-2, large-size lymphocytes, FIG. 5H): 3 fold; patients with activated CD8+ Perforin+ cells expressing TCR specific for the peptide [2]: three of five |
| RLLEASADA (listed as Homo sapiens) [Notch1-1947, used as specificity control] |  |  |  | 0.10 | 0.99% | 0.32 | 0.10 | 0.65 | 0.24 | 0.22 | 0.53 | 0.26% | 0.14% | 1.98 | 0.26 |  |
| O=c1[nH]cc(F)c(=O)[nH]1 [5-FU, 5-fluorouracil] |  |  |  |  |  |  |  |  |  |  |  |  |  |  |  | IC50 (MCF7 [3]): 1.3 µM; IC50 (MIA-PaCa-2 [4]): 3.7 µM; IC50 (PANC-1): 0.8 µM; IC50 (AsPC-1): 15.2 µM; IC50 (SKOV-3): 3.6 µM; change of CSt-like-C population (MCF7 [5]; MCF7): increased; cells harvested (MCF7 [5]; after culture of 3×10^6 MCF-7 cells): 1.6 ×10^6; change of CSt-C (CSt-like-C) population (MIA-PaCa-2 [6]; MIA-PaCa-2): increased; % CD44hi CD24- in ESA+ cells (MIA-PaCa-2 [6]; [10]): 0.2%; % CD44hi CD24hi in ESA+ cells (MIA-PaCa-2 [6]; [10]): 7.1%; % CD44hi CD24low in ESA+ cells (MIA-PaCa-2 [6]; [10]): 19.8%; % CSt-like-C (MIA-PaCa-2 [6]; [10]): 16.4%; % ESA+ (MIA-PaCa-2 [6]; [10]): 83.0%; number of cells expressing MICA and MICB in drug-resistant cells (MIA-PaCa-2 [7]): increased; cells harvested (MIA-PaCa-2 [8]): 3.4 ×10^6 cells |
| LPL TPLPVGL [AES1] | 0.19% | 0.23 | 0.23% |  |  |  |  |  |  |  |  |  |  |  |  |  |
| RLLDEYNLV (listed as Homo sapiens) [Notch1-2112] | 0.26% | 0.24 | 0.28% | 0.17 | 2.09* % | 0.35 | 0.08 | 0.43 | 0.28 | 0.08 | 0.88 | 0.34* % | 0.17% | 2.52 | 0.36 | TCRmed cells relative to base-line NP dimers ([2]; Patient 4): 2.61 times; TCRmed cells relative to base-line control dNP ([2]; Patient 5): 1.63 times; patients with activated CD8+ Perforin+ cells expressing TCR specific for the peptide [2]: two of five |
